In assay [1] the target is T1, human AT1 receptor (angiotensin II type 1 receptor) (Homo sapiens, UniProt P30556).
T1 construct: gene AGTR1; full-length receptor transfected in HEK293A cells; AT1 (human)-mCherry plasmid for NFAT assay
T1 sequence (P30556 1-359): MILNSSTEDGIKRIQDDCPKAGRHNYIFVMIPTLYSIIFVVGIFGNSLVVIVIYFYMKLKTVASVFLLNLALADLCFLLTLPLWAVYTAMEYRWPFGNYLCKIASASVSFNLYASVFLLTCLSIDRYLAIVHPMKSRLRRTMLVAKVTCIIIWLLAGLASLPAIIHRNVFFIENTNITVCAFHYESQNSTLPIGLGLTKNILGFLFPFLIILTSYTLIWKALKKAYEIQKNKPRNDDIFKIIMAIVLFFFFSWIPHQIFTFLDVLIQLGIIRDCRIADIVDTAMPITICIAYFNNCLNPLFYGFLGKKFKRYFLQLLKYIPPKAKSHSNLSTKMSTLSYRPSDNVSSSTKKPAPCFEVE
Description: Ca2+ flux, Fluo-3-AM, HEK293A cells. In kind it is cell-based.

The target in assay [2] is T2, human AT1 receptor (angiotensin II type 1 receptor) (Homo sapiens, UniProt P30556, C289S).
T2 construct: gene AGTR1; full-length receptor transfected in HEK293A cells; AT1 (human)-mCherry plasmid for NFAT assay
T2 sequence (P30556 1-359 C289S): T1 sequence (P30556 1-359) with C289S
The experiment in a line: […]-Ang II competition binding, membranes.

The target in assay [3] is T3, human AT1 receptor (angiotensin II type 1 receptor) (Homo sapiens, UniProt P30556, R167A).
T3 construct: gene AGTR1; full-length receptor transfected in HEK293A cells; AT1 (human)-mCherry plasmid for NFAT assay
T3 sequence (P30556 1-359 R167A): T1 sequence (P30556 1-359) with R167A
Description: […]-Ang II competition binding, membranes.

The target of assay [4] is T1, human AT1 receptor (angiotensin II type 1 receptor). Description: […]-Ang II competition binding, membranes.

Each structure is given as a SMILES string. Positions count from the first letter of the chain named.

The term EC50 denotes the concentration that produces a half-maximal response. Low values mean a more potent agent, high ones a less potent agent. The Ki is a measure of affinity in units of concentration, obtained from inhibition or displacement. Low readings indicate higher affinity, high ones lower affinity. `NC(CCS)C(=O)O` (racemic) [Hcy]: in assay [1], the midpoint of the response, the EC50, lay at 81.3 µM. Further, the Ki in assay [2] is 159 µM; in assay [3], 92 µM; in assay [4], 10.7 µM.

The record behind these values is article PMC5750214 (Nature Communications, 2018).
